Results from US9879023B2, “Therapeutic compounds” (Gilead Sciences, Inc., priority 2011, dated 2018).

These compounds were tested on HIV-IIIb (MT-4 cells) (assay: Test A: Antiviral Assays in MT4 Cells). Settings: Human immunodeficiency virus 1, IIIB, MT4, 120 h, MT-4 cells infected with HIV-IIIb (0.004 m.o.i.), 5 days incubation, CellTiter-Glo readout; read-out: EC50.
Format: cell-based
Protocol: Test A: Antiviral Assays in MT4 Cells
For the antiviral assay utilizing MT-4 cells, 0.4 μL of […] test concentration of 3-fold serially diluted compound in DMSO was added to 40 μL of cell growth medium (RPMI 1640, 10% FBS, 1% penicilline/Streptomycine, 1% L-Glutamine, 1% HEPES) in each well of 384-well assay plates (10 concentrations) in quadruplicate.
1 mL aliquots of 2×10e6 MT-4 cells are pre-infected for 1 and 3 hrs respectively, @37° C. with 25 uL (MT4) or of either cell growth medium (mock-infected) or a fresh 1:250 dilution of an HIV-IIIb concentrated ABI stock (0.004 m.o.i. for MT4 cells). Infected and uninfected cells are diluted in cell growth medium and 35 uL of 2000 (for MT4) cells is added to each well of the assay plates.
Assay plates were then incubated in a 37° C. incubator. After 5 days of incubation, 25 μl of 2× concentrated CellTiter-Glo™ Reagent (catalog # G7573, Promega Biosciences, Inc., Madison, Wis.) was added to each well of the assay plate. Cell lysis was carried out by incubating at room temperature for 2-3 min and then chemiluminescence was read using the Envision reader (PerkinElmer). […]

Going from Cc1cc2nc(C3CC3)sc2c(-c2ccc3c4c(ccnc24)CCO3)c1[C@H](OC(C)(C)C)C(=O)O [Compound 22, (S)-2-tert-butoxy-2-((R)-2-cyclopropyl-7-(2,3-dihydropyrano[4,3,2-de]quinolin-7-yl)-5-methylbenzo[d]thiazol-6-yl)acetic acid] to Cc1cc2nc(C(F)F)sc2c(-c2ccc3c4c(ccnc24)CCO3)c1[C@H](OC(C)(C)C)C(=O)O (atropisomer, axis not shown) [Compound 92, (S)-2-tert-butoxy-2-((S)-2-(difluoromethyl)-7-(2,3-dihydropyrano[4,3,2-de]quinolin-7-yl)-5-methylbenzo[d]thiazol-6-yl)acetic acid], the EC50 rises from 170 nM to 353 nM (2.1-fold).

Going from Cc1cc2nc(C#CC3CC3)sc2c(-c2ccc(Cl)cc2)c1[C@H](OC(C)(C)C)C(=O)O [Compound 14] to CCc1nc2cc(C)c([C@H](OC(C)(C)C)C(=O)O)c(-c3ccc(Cl)cc3)c2s1 [Compound 9], the EC50 falls from 718 nM to 118 nM (6.1-fold). The second is the more potent here.

First: Cc1cc2nc(N(C)Cc3ccccc3)sc2c(-c2ccc3c4c(ccnc24)CCO3)c1[C@H](OC(C)(C)C)C(=O)O [Compound 63, (2S)-2-(2-(benzyl(methyl)amino)-7-(2,3-dihydropyrano[4,3,2-de]quinolin-7-yl)-5-methylbenzo[d]thiazol-6-yl)-2-tert-butoxyacetic acid]
Second: Cc1cc2nc(C(=O)NCCc3ccccc3)sc2c(-c2ccc3c4c(ccnc24)CCO3)c1[C@H](OC(C)(C)C)C(=O)O (atropisomer, axis not shown) [Compound 98, (S)-2-tert-butoxy-2-((S)-7-(2,3-dihydropyrano[4,3,2-de]quinolin-7-yl)-5-methyl-2-(phenethylcarbamoyl)benzo[d]thiazol-6-yl)acetic acid]
The EC50 of the first is 7.2-fold lower: 351 nM for the first, 2510 nM for the second. The first is the more potent here.

Going from CCN(CC)c1nc2cc(C)c([C@H](OC(C)(C)C)C(=O)O)c(-c3ccc4c5c(ccnc35)CCO4)c2s1 (atropisomer, axis not shown) [Compound 45, (S)-2-tert-butoxy-2-((S)-2-(diethylamino)-7-(2,3-dihydropyrano[4,3,2-de]quinolin-7-yl)-5-methylbenzo[d]thiazol-6-yl)acetic acid] to CCN(C)c1nc2cc(C)c([C@H](OC(C)(C)C)C(=O)O)c(-c3ccc4c5c(ccnc35)CCO4)c2s1 (atropisomer, axis not shown) [Compound 44, (S)-2-tert-butoxy-2-((S)-7-(2,3-dihydropyrano[4,3,2-de]quinolin-7-yl)-2-(ethyl(methyl)amino)-5-methylbenzo[d]thiazol-6-yl)acetic acid], the EC50 falls from 67 nM to 18.7 nM (3.6-fold).

CNC(=O)c1nc2cc(C)c([C@H](OC(C)(C)C)C(=O)O)c(-c3ccc4c5c(ccnc35)CCO4)c2s1 (atropisomer, axis not shown) [Compound 97, (S)-2-tert-butoxy-2-((S)-7-(2,3-dihydropyrano[4,3,2-de]quinolin-7-yl)-5-methyl-2-(methylcarbamoyl)benzo[d]thiazol-6-yl)acetic acid] and CC(=O)Nc1nc2cc(C)c([C@H](OC(C)(C)C)C(=O)O)c(-c3ccc4c5c(ccnc35)CCO4)c2s1 (atropisomer, axis not shown) [Compound 93, (S)-2-((S)-2-acetamido-7-(2,3-dihydropyrano[4,3,2-de]quinolin-7-yl)-5-methylbenzo[d]thiazol-6-yl)-2-tert-butoxyacetic acid] are within 1.5-fold of each other in EC50: 1240 nM for the first, 1420 nM for the second.

Compared with Cc1cc2c(sc(=O)n2Cc2ccccc2)c(-c2ccc3c4c(ccnc24)CCO3)c1[C@H](OC(C)(C)C)C(=O)O (atropisomer, axis not shown) [Compound 72, (S)-2-((S)-3-benzyl-7-(2,3-dihydropyrano[4,3,2-de]quinolin-7-yl)-5-methyl-2-oxo-2,3-dihydrobenzo[d]thiazol-6-yl)-2-tert-butoxyacetic acid], Cc1cc2c(sc(=O)n2Cc2ccc(C(F)(F)F)cc2)c(-c2ccc3c4c(ccnc24)CCO3)c1[C@H](OC(C)(C)C)C(=O)O (atropisomer, axis not shown) [Compound 74, (S)-2-tert-butoxy-2-((S)-7-(2,3-dihydropyrano[4,3,2-de]quinolin-7-yl)-5-methyl-2-oxo-3-(4-(trifluoromethyl)benzyl)-2,3-dihydrobenzo[d]thiazol-6-yl)acetic acid] is 22-fold higher in EC50: 29.8 nM for the first, 650 nM for the second. The first is the more potent here.

First: Cc1cc2c(sc(=O)n2C)c(-c2ccc3c4c(ccnc24)CCO3)c1[C@H](OC(C)(C)C)C(=O)O (atropisomer, axis not shown) [Compound 68, (S)-2-tert-butoxy-2-((S)-7-(2,3-dihydropyrano[4,3,2-de]quinolin-7-yl)-3,5-dimethyl-2-oxo-2,3-dihydrobenzo[d]thiazol-6-yl)acetic acid]
Second: Cc1cc2ncsc2c(-c2ccc3c4c(ccnc24)CCO3)c1[C@H](OC(C)(C)C)C(=O)O (atropisomer, axis not shown) [Compound 95, (S)-2-tert-butoxy-2-((S)-7-(2,3-dihydropyrano[4,3,2-de]quinolin-7-yl)-5-methylbenzo[d]thiazol-6-yl)acetic acid]
The EC50 of the first is 2.2-fold lower: 292 nM for the first, 655 nM for the second. The first is the more potent here.

Compared with Cc1cc2ncsc2c(-c2ccc(Cl)cc2)c1[C@H](OC(C)(C)C)C(=O)O [Compound 5L, (S)-2-tert-butoxy-2-(7-(4-chlorophenyl)-5-methylbenzo[d]thiazol-6-yl)acetic acid], Cc1cc2nc(N(C)C)sc2c(-c2ccc(Cl)cc2)c1[C@H](OC(C)(C)C)C(=O)O [Compound 12] is 26-fold lower in EC50: 2950 nM for the first, 113 nM for the second.

Cc1cc2nc(OC(C)C)sc2c(-c2ccc3c4c(ccnc24)CCO3)c1[C@H](OC(C)(C)C)C(=O)O (atropisomer, axis not shown) [Compound 70, (S)-2-tert-butoxy-2-((S)-7-(2,3-dihydropyrano[4,3,2-de]quinolin-7-yl)-2-isopropoxy-5-methylbenzo[d]thiazol-6-yl)acetic acid] was tested, and the EC50 was 80.8 nM.

Same assay, conditions: MT-4 cells infected with HIV-IIIb (0.004 m.o.i.), 5 days incubation, CellTiter-Glo readout; read-out: EC50

Compared with Cc1cc2nc(C3CCCC3)sc2c(-c2ccc3c4c(ccnc24)CCO3)c1[C@H](OC(C)(C)C)C(=O)O (atropisomer, axis not shown) [Compound 81, (S)-2-tert-butoxy-2-((R)-2-cyclopentyl-7-(2,3-dihydropyrano[4,3,2-de]quinolin-7-yl)-5-methylbenzo[d]thiazol-6-yl)acetic acid], Cc1cc2nc(C3CC3)sc2c(-c2ccc3c4c(ccnc24)CCO3)c1[C@H](OC(C)(C)C)C(=O)O [Compound 21, (S)-2-tert-butoxy-2-((S)-2-cyclopropyl-7-(2,3-dihydropyrano[4,3,2-de]quinolin-7-yl)-5-methylbenzo[d]thiazol-6-yl)acetic acid] is 1800-fold lower in EC50: 27400 nM for the first, 14.9 nM for the second.

Compared with Cc1cc2nc(C3CCCC3)sc2c(-c2ccc3c4c(ccnc24)CCO3)c1[C@H](OC(C)(C)C)C(=O)O (atropisomer, axis not shown) [Compound 80, (S)-2-tert-butoxy-2-((S)-2-cyclopentyl-7-(2,3-dihydropyrano[4,3,2-de]quinolin-7-yl)-5-methylbenzo[d]thiazol-6-yl)acetic acid], Cc1cc2nc(N3CCC3)sc2c(-c2ccc3c4c(ccnc24)CCO3)c1[C@H](OC(C)(C)C)C(=O)O [Compound 36, (S)-2-((R)-2-(azetidin-1-yl)-7-(2,3-dihydropyrano[4,3,2-de]quinolin-7-yl)-5-methylbenzo[d]thiazol-6-yl)-2-tert-butoxyacetic acid] is 46-fold higher in EC50: 136 nM for the first, 6210 nM for the second.

Going from Cc1cc2nc(N(C)CC(C)C)sc2c(-c2ccc3c4c(ccnc24)CCO3)c1[C@H](OC(C)(C)C)C(=O)O (atropisomer, axis not shown) [Compound 48, (S)-2-tert-butoxy-2-((S)-7-(2,3-dihydropyrano[4,3,2-de]quinolin-7-yl)-2-(isobutyl(methyl)amino)-5-methylbenzo[d]thiazol-6-yl)acetic acid] to Cc1cc2nc(N(C)C(C)C)sc2c(-c2ccc3c4c(ccnc24)CCO3)c1[C@H](OC(C)(C)C)C(=O)O (atropisomer, axis not shown) [Compound 46, (S)-2-tert-butoxy-2-((S)-7-(2,3-dihydropyrano[4,3,2-de]quinolin-7-yl)-2-(isopropyl(methyl)amino)-5-methylbenzo[d]thiazol-6-yl)acetic acid], the EC50 falls from 67 nM to 16.8 nM (4-fold).

First: Cc1cc2nc(C3CC3)sc2c(-c2ccc3c(c2Cl)NCCO3)c1[C@H](OC(C)(C)C)C(=O)O (atropisomer, axis not shown) [Compound 86, (S)-2-tert-butoxy-2-((S)-7-(5-chloro-3,4-dihydro-2H-benzo[b][1,4]oxazin-6-yl)-2-cyclopropyl-5-methylbenzo[d]thiazol-6-yl)acetic acid]
Second: Cc1cc2nc(C3=CCCC3)sc2c(-c2ccc3c4c(ccnc24)CCO3)c1[C@H](OC(C)(C)C)C(=O)O (atropisomer, axis not shown) [Compound 79, (S)-2-tert-butoxy-2-((R)-2-cyclopentenyl-7-(2,3-dihydropyrano[4,3,2-de]quinolin-7-yl)-5-methylbenzo[d]thiazol-6-yl)acetic acid]
The EC50 of the first is 740-fold lower: 61.7 nM for the first, 45900 nM for the second.

With Cc1cc2nc(CC(C)C)sc2c(-c2ccc3c4c(ccnc24)CCO3)c1[C@H](OC(C)(C)C)C(=O)O (atropisomer, axis not shown) [Compound 84, (S)-2-tert-butoxy-2-((R)-7-(2,3-dihydropyrano[4,3,2-de]quinolin-7-yl)-2-isobutyl-5-methylbenzo[d]thiazol-6-yl)acetic acid] the EC50 was 14900 nM.
